# Target: Recombinant human DGAT2 protein (Homo sapiens (Human), UniProt Q96PD7)
# Assay: Measurement of inhibitory effect against DGAT2 enzyme activity (SPA, Phospholipid Flash Plate)
# Assay type: biochemical
# Conditions: DGAT2-membrane protein from Sf-21 cells, [14C] oleoyl CoA, 1,2 sn-oleoyl glycerol, 37° C.; read-out: IC50 (concentration of the compound that inhibits TG production by 50%)
# Method: In order to prepare the pBacPAK9-DGAT2, which is DGAT2 expression vector, the human DGAT2 gene amplified by polymerase chain reaction (PCR) was cloned into the EcoR1 and Xho1 sites of the pBacPAK9 (clonctech) vector. The nucleotide sequence of the primers used in PCR was the forward primer 5′ […] and the reverse primer 5′ […]. The composition of the reaction solution was to contain 50 ng of cDNA clone (OriGene), 200 μM of dATP, dCTP, dTTP, dGTP, 200 nM of each primer, 1 unit of Tag DNA Polymerase (Toyobo), 1×PCR buffer, and the final volume was adjusted to 20 μl. […]
# Recombinant human DGAT2 protein was expressed in Sf-21 cells, which are insect cells, by using the BacPack baculovirus expression system (Clontech). […] Protein concentration was quantified by using the BCA Protein Assay Kit (Thermo Scientific).
# In vitro DGAT2 analysis was performed using a Phospholipid Flash Plate (PerkinElmer) based on the principle of SPA (Scintilation Proximity Assay). […] The next day, the amplified scintillation signal (cpm) in Topcounter (Packard) was measured to measure the degree of production of [14C]-labeled triacyl glycerol (TG) as a reaction product. The measured value when the compound was not treated was used as a positive control, and the measured value of the compound treated group was calculated as a relative % to measure the inhibition effect of the compound on TG production. […]
# Chain of Recombinant human DGAT2 protein (Q96PD7 whole entry): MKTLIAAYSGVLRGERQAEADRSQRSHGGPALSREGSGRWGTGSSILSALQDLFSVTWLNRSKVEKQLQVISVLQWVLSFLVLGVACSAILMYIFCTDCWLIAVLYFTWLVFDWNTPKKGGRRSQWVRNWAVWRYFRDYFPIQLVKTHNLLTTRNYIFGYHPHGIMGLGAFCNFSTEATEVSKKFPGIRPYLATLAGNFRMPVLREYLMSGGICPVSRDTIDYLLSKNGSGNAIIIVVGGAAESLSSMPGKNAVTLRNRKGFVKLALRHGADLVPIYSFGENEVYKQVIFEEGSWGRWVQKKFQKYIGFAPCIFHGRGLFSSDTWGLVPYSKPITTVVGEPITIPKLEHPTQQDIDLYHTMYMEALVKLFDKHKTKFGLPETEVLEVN
smiles,measurement,value
"CCOc1ccccc1Oc1cccc(-c2cncc(NC(=O)Cc3ccc(CC(=O)O)cc3)n2)c1 [Example 11, 2-(4-(2-((6-(3-(2-ethoxyphenoxy)phenyl)pyrazin-2-yl)amino)-2-oxoethyl)phenyl)acetic acid]",IC50,370 nM

# Source: US12459915B2, “Biaryl derivative useful as diacylglycerol acyltransferase 2 inhibitor, and use thereof” (LG CHEM, LTD., priority 2020, dated 2025)
